Data published in patent US4698350A, “1-ethyl-6-fluoro-1,4-dihydro- 7-(2,6-dimethyl-4-pyridinyl)-4-oxo-3-quinolinecarboxylic acid and antibacterial use thereof” (Sterling Drug Inc., priority 1984, dated 1987).
≈ marks a conversion by molar mass, not a printed value. Read-outs that look alike come from different tables or passages of the source.

Experiments:
Assay type in all cases: cell-based
S. aureus S-234 = assay: In vitro antibacterial MIC/MBC test; settings: Staphylococcus aureus, S234
Description: (§1) Win 52,522 and Win 35,439 were solubilized in 0.1 ml of 0.5 N NaOH/mg of compound and diluted in sterile distilled water to 160 mcg/ml. Vancomycin and methicillin were solubilized in sterile distilled water to 1250 mcg/ml of base compound. The stock solutions were sterilized by filtration through membrane filters with a 0.45 μm pore size.
(§2) The bacterial cultures listed in Table I (hereinbelow) were grown overnight at 37° C. in MHB for all cultures except the Streptococcus strains. These were grown in BHI+10% NHS. The overnight broth cultures were adjusted to an optical density of 0.10 (650 nm, B L Spectronic 20) in sterile distilled water and subsequently diluted to 6.7×10^6 cells/ml in MHB or BHI+1% NHS.
(§3) Serial two-fold dilutions of the compound solutions were prepared in MHB (or in BHI+1% NHS for tests with Streptococci) and dispensed into 96-well microtiter trays in a volume of 0.1 ml/well using a Sandy Springs (Bellco Glass Co.) dispenser. The trays were then inoculated with 0.0015 ml of a suspension containing 6.7×10^6 cells/ml of the appropriate inoculum using a MIC-2000 inoculator (Dynatech Corp.) resulting in a final inoculum of approximately 1×10^4 cells/well or 1×10^5 cells/ml. The trays were incubated at 37° C. for 18-20 hours and the minimal inhibitory concentration (MIC), defined as the lowest concentration of compound to inhibit visible bacterial growth, was recorded.
(§4) After the MIC values were recorded, the contents in the microtiter trays were thoroughly mixed on a Bellco Mini-orbital Shaker (Bellco Glass Co.) for 3 min. at a setting of 8. A portion (0.0015 ml) from each well was then transferred via an MIC-2000 inoculator to plates containing MHA or BHI agar+10% NHS. The plates were incubated at 37° C. for 18-20 hrs. The minimal bactericidal concentration (MBC), defined as the lowest concentration of compound that prevented the formation of a recognizable colony on the agar surface, was recorded.

S. aureus VA16951 = assay: In vitro antibacterial MIC/MBC test; settings: Staphylococcus aureus
Description: as §1, §2, §3, §4

S. aureus 59-81 = assay: In vitro antibacterial MIC/MBC test; settings: Staphylococcus aureus, 5981
Description: as §1, §2, §3, §4

S. epidermidis 1-3-H = assay: In vitro antibacterial MIC/MBC test; settings: Staphylococcus epidermidis, 13H
Description: as §1, §2, §3, §4

S. aureus 21-81A = assay: In vitro antibacterial MIC/MBC test; settings: Staphylococcus aureus, 2181A
Description: as §1, §2, §3, §4

S. enterococcus 0-2-13 = assay: In vitro antibacterial MIC/MBC test; settings: 0213
Description: as §1, §2, §3, §4

S. aureus 10-81 = assay: In vitro antibacterial MIC/MBC test; settings: Staphylococcus aureus, 1081
Description: as §1, §2, §3, §4

S. aureus 13-8-A = assay: In vitro antibacterial MIC/MBC test; settings: Staphylococcus aureus, 138A
Description: as §1, §2, §3, §4

S. faecalis 4510 = assay: In vitro antibacterial MIC/MBC test; settings: Enterococcus faecalis
Description: as §1, §2, §3, §4

S. aureus (25923) = assay: In vitro antibacterial MIC/MBC test; settings: Staphylococcus aureus, ATCC25923
Description: as §1, §2, §3, §4

S. faecalis (8043) = assay: In vitro antibacterial MIC/MBC test; settings: Enterococcus faecalis, ATCC8043
Description: as §1, §2, §3, §4

S. pyogenes 7948-15 = assay: In vitro antibacterial MIC/MBC test; settings: Streptococcus pyogenes, 794815
Description: as §1, §2, §3, §4

S. aureus 24-81 = assay: In vitro antibacterial MIC/MBC test; settings: Staphylococcus aureus, 2481
Description: as §1, §2, §3, §4

S. aureus 39881 = assay: In vitro antibacterial MIC/MBC test; settings: Staphylococcus aureus
Description: as §1, §2, §3, §4

S. pyogenes C203 = assay: In vitro antibacterial MIC/MBC test; settings: Streptococcus pyogenes
Description: as §1, §2, §3, §4

S. aureus = assay: In vitro MIC/MBC summary (Table II); settings: Staphylococcus aureus; for MIC50: read-out: MIC 50%; for MIC90: read-out: MIC 90%; for MIC: read-out: MIC Range
Description: as §1, §2, §3, §4

Streptococcus sp. = assay: In vitro MIC/MBC summary (Table II); settings: for MIC: read-out: MIC Range
Description: as §1, §2, §3, §4

CN[C@H](CC(C)C)C(=O)N[C@H]1C(=O)N[C@@H](CC(N)=O)C(=O)N[C@H]2C(=O)N[C@H]3C(=O)N[C@H](C(=O)N[C@H](C(=O)O)c4cc(O)cc(O)c4-c4cc3ccc4O)[C@H](O)c3ccc(c(Cl)c3)Oc3cc2cc(c3O[C@@H]2O[C@H](CO)[C@@H](O)[C@H](O)[C@H]2O[C@H]2C[C@](C)(N)[C@H](O)[C@H](C)O2)Oc2ccc(cc2Cl)[C@H]1O [Vancomycin]
MBC (S. aureus S-234): 1 µg/mL (≈ 0.69 µM)
MIC (S. aureus S-234): 1 µg/mL (≈ 0.69 µM)
MBC (S. aureus VA16951; VA16951): 1 µg/mL (≈ 0.69 µM)
MIC (S. aureus VA16951; VA16951): 1 µg/mL (≈ 0.69 µM)
MBC (S. aureus 59-81): 1 µg/mL (≈ 0.69 µM)
MIC (S. aureus 59-81): 1 µg/mL (≈ 0.69 µM)
MBC (S. epidermidis 1-3-H): 1 µg/mL (≈ 0.69 µM)
MIC (S. epidermidis 1-3-H): 1 µg/mL (≈ 0.69 µM)
MBC (S. aureus 21-81A): 1 µg/mL (≈ 0.69 µM)
MIC (S. aureus 21-81A): 0.5 µg/mL (≈ 0.345 µM)
MBC (S. enterococcus 0-2-13; Enterococcus): 16 µg/mL (≈ 11 µM)
MIC (S. enterococcus 0-2-13; Enterococcus): 0.25 µg/mL (≈ 0.173 µM)
MBC (S. aureus 10-81): 1 µg/mL (≈ 0.69 µM)
MIC (S. aureus 10-81): 1 µg/mL (≈ 0.69 µM)
MBC (S. aureus 13-8-A): 0.5 µg/mL (≈ 0.345 µM)
MIC (S. aureus 13-8-A): 0.5 µg/mL (≈ 0.345 µM)
MBC (S. faecalis 4510; 4510): > 125 µg/mL
MIC (S. faecalis 4510; 4510): 2 µg/mL (≈ 1.38 µM)
MBC (S. aureus (25923)): 1 µg/mL (≈ 0.69 µM)
MIC (S. aureus (25923)): 1 µg/mL (≈ 0.69 µM)
MBC (S. faecalis (8043)): > 125 µg/mL
MIC (S. faecalis (8043)): 1 µg/mL (≈ 0.69 µM)
MBC (S. pyogenes 7948-15): 16 µg/mL (≈ 11 µM)
MIC (S. pyogenes 7948-15): 16 µg/mL (≈ 11 µM)
MBC (S. aureus 24-81): 0.5 µg/mL (≈ 0.345 µM)
MIC (S. aureus 24-81): 0.5 µg/mL (≈ 0.345 µM)
MBC (S. aureus 39881; 39881): 1 µg/mL (≈ 0.69 µM)
MIC (S. aureus 39881; 39881): 1 µg/mL (≈ 0.69 µM)
MBC (S. pyogenes C203; C203): 16 µg/mL (≈ 11 µM)
MIC (S. pyogenes C203; C203): 16 µg/mL (≈ 11 µM)
MBC (S. aureus; 15 S. aureus strains, read-out: MBC 50%): 1 µg/mL (≈ 0.69 µM)
MBC (S. aureus; 15 S. aureus strains, read-out: MBC 90%): 1 µg/mL (≈ 0.69 µM)
MBC (S. aureus; 15 S. aureus strains, read-out: MBC Range): 0.5 to 1 µg/mL (≈ 0.345 to 0.69 µM)
MIC50 (S. aureus; 15 S. aureus strains): 1 µg/mL (≈ 0.69 µM)
MIC90 (S. aureus; 15 S. aureus strains): 1 µg/mL (≈ 0.69 µM)
MIC (S. aureus; 15 S. aureus strains): 0.5 to 1 µg/mL (≈ 0.345 to 0.69 µM)
MIC50 (Streptococcus sp.; Streptococcus): 2 µg/mL (≈ 1.38 µM)
MIC90 (Streptococcus sp.; Streptococcus): 16 µg/mL (≈ 11 µM)
MBC (Streptococcus sp.; Streptococcus, read-out: MBC 50%): 16 µg/mL (≈ 11 µM)
MBC (Streptococcus sp.; Streptococcus, read-out: MBC 90%): > 125 µg/mL
MIC (Streptococcus sp.; Streptococcus): 0.06 to 16 µg/mL (≈ 0.0414 to 11 µM)

CCn1cc(C(=O)O)c(=O)c2ccc(-c3cc(C)nc(C)c3)cc21 [Win 35,439, 1-ethyl-1,4-dihydro-7-(2,6-dimethyl-4-pyridinyl)-4-oxo-3-quinolinecarboxylic acid]
MBC (S. aureus S-234; S. aureus S-234, read-out: MBC): 0.125 µg/mL (≈ 0.388 µM)
MIC (S. aureus S-234; S. aureus S-234, read-out: MIC): 0.06 µg/mL (≈ 0.186 µM)
MBC (S. aureus VA16951; S. aureus VA16951, read-out: MBC): 0.06 µg/mL (≈ 0.186 µM)
MIC (S. aureus VA16951; S. aureus VA16951, read-out: MIC): 0.06 µg/mL (≈ 0.186 µM)
MBC (S. aureus 59-81; S. aureus 59-81, read-out: MBC): 0.25 µg/mL (≈ 0.776 µM)
MIC (S. aureus 59-81; S. aureus 59-81, read-out: MIC): 0.125 µg/mL (≈ 0.388 µM)
MBC (S. epidermidis 1-3-H; S. epidermidis 1-3-H, read-out: MBC): 0.25 µg/mL (≈ 0.776 µM)
MIC (S. epidermidis 1-3-H; S. epidermidis 1-3-H, read-out: MIC): 0.25 µg/mL (≈ 0.776 µM)
MBC (S. aureus 21-81A; S. aureus 21-81A, read-out: MBC): 0.125 µg/mL (≈ 0.388 µM)
MIC (S. aureus 21-81A; S. aureus 21-81A, read-out: MIC): 0.06 µg/mL (≈ 0.186 µM)
MBC (S. enterococcus 0-2-13; S. enterococcus 0-2-13, read-out: MBC): 2 µg/mL (≈ 6.2 µM)
MIC (S. enterococcus 0-2-13; S. enterococcus 0-2-13, read-out: MIC): 2 µg/mL (≈ 6.2 µM)
MBC (S. aureus 10-81; S. aureus 10-81, read-out: MBC): 0.125 µg/mL (≈ 0.388 µM)
MIC (S. aureus 10-81; S. aureus 10-81, read-out: MIC): 0.125 µg/mL (≈ 0.388 µM)
MBC (S. aureus 13-8-A; S. aureus 13-8-A, read-out: MBC): 0.125 µg/mL (≈ 0.388 µM)
MIC (S. aureus 13-8-A; S. aureus 13-8-A, read-out: MIC): 0.06 µg/mL (≈ 0.186 µM)
MBC (S. faecalis 4510; S. faecalis 4510, read-out: MBC): 0.5 µg/mL (≈ 1.55 µM)
MIC (S. faecalis 4510; S. faecalis 4510, read-out: MIC): 0.5 µg/mL (≈ 1.55 µM)
MBC (S. aureus (25923); S. aureus ATCC No. 25923, read-out: MBC): 0.125 µg/mL (≈ 0.388 µM)
MIC (S. aureus (25923); S. aureus ATCC No. 25923, read-out: MIC): 0.125 µg/mL (≈ 0.388 µM)
MBC (S. faecalis (8043); S. faecalis ATCC No. 8043, read-out: MBC): 2 µg/mL (≈ 6.2 µM)
MIC (S. faecalis (8043); S. faecalis ATCC No. 8043, read-out: MIC): 1 µg/mL (≈ 3.1 µM)
MBC (S. pyogenes 7948-15; S. pyogenes 7948-15, read-out: MBC): > 16 µg/mL
MIC (S. pyogenes 7948-15; S. pyogenes 7948-15, read-out: MIC): 4 µg/mL (≈ 12.4 µM)
MBC (S. aureus 24-81; S. aureus 24-81, read-out: MBC): 0.125 µg/mL (≈ 0.388 µM)
MIC (S. aureus 24-81; S. aureus 24-81, read-out: MIC): 0.06 µg/mL (≈ 0.186 µM)
MBC (S. aureus 39881; S. aureus 39881, read-out: MBC): 0.06 µg/mL (≈ 0.186 µM)
MIC (S. aureus 39881; S. aureus 39881, read-out: MIC): 0.06 µg/mL (≈ 0.186 µM)
MBC (S. pyogenes C203; S. pyogenes C203, read-out: MBC): > 16 µg/mL
MIC (S. pyogenes C203; S. pyogenes C203, read-out: MIC): 4 µg/mL (≈ 12.4 µM)
MBC (S. aureus; read-out: MBC 50%): 0.25 µg/mL (≈ 0.776 µM)
MBC (S. aureus; read-out: MBC 90%): 0.5 µg/mL (≈ 1.55 µM)
MBC (S. aureus; read-out: MBC Range): 0.125 to 0.5 µg/mL (≈ 0.388 to 1.55 µM)
MIC50 (S. aureus; 15 S. aureus strains): 0.06 µg/mL (≈ 0.186 µM)
MIC90 (S. aureus; 15 S. aureus strains): 0.125 µg/mL (≈ 0.388 µM)
MIC (S. aureus; 15 S. aureus strains): 0.03 to 0.125 µg/mL (≈ 0.0931 to 0.388 µM)
MBC (Streptococcus sp.; 9 Streptococcus sp. strains, read-out: MBC 50%): 2 µg/mL (≈ 6.2 µM)
MBC (Streptococcus sp.; 9 Streptococcus sp. strains, read-out: MBC 90%): > 16 µg/mL
MIC50 (Streptococcus sp.; 9 Streptococcus sp. strains, read-out: MIC 50%): 2 µg/mL (≈ 6.2 µM)
MIC90 (Streptococcus sp.; 9 Streptococcus sp. strains, read-out: MIC 90%): 4 µg/mL (≈ 12.4 µM)
MIC (Streptococcus sp.; 9 Streptococcus sp. strains): 0.5 to 4 µg/mL (≈ 1.55 to 12.4 µM)
